Some test systems named below: 786-0; HCT-116; HOP-62; K562; LOX IMVI; M14; MOLT-4; NCI-H460; OVCAR-3; SK-OV-3; SN12C; SW-620; UACC-62; NCI-H522.
Assay in all cases: NCI tumour cell line growth inhibition, 48 h

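Values below derive from 48-hour exposures of cells grown in 96-well plates, with endpoints linearly interpolated between the two concentrations bracketing the appropriate inhibition level. Abbreviation: GI50, concentration required for 50% inhibition of growth.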 Calls of active or inactive are those of the source. No stated cut-off is given here; in the data, active = GI50 up to about 1.1 µM and inactive = higher. A value given as a limit tells only on which side of the number the result lay.

Results on 11 compounds are retold here after ChEMBL document CHEMBL1201862, “PubChem BioAssay data set” (2004).

`CC(C)(C)c1cc(C2c3cc4c(cc3OC(O)(CO)C2C(=O)O)OCO4)cc(C(C)(C)C)c1O.CC(C)(C)c1cc(C2c3cc4c(cc3OC3(O)COC(=O)C23)OCO4)cc(C(C)(C)C)c1O` (stereo not given): the GI50 in the assay with 786-0 was 16.6 µM (inactive); in the assay with HCT-116, 8.47 µM (inactive); in the assay on HOP-62 it was 32.2 µM (inactive); in the assay on K562 it was 7.67 µM (inactive); with LOX IMVI it was 12.2 µM (inactive); with M14, 14.7 µM (inactive). For the same compound, the GI50 is 3.52 µM (inactive) in the assay with MOLT-4; 14.7 µM (inactive) in the assay with NCI-H460; 5.36 µM (inactive) in the assay with OVCAR-3; 27.3 µM (inactive) in the assay with SK-OV-3; 9.04 µM (inactive) with SN12C; 14.4 µM (inactive) in the assay on SW-620. Also, the GI50 in the assay with UACC-62 was 5 µM (inactive).

As to `O=[N+]([O-])c1ccc(/C(Cl)=C/c2ccc(/C=C(\Cl)c3ccc([N+](=O)[O-])cc3[N+](=O)[O-])cc2)c([N+](=O)[O-])c1`, the GI50 with 786-0, in the assay with HCT-116, in the assay with HOP-62, in the assay with LOX IMVI, in the assay with M14 and with MOLT-4 was > 100 µM (inactive) each time. Besides, the GI50 in the assay with NCI-H460 was > 100 µM (inactive); with NCI-H522, > 100 µM (inactive); with OVCAR-3 it was 0.729 µM (active); in the assay on SK-OV-3, > 100 µM (inactive); in the assay on SN12C it was > 100 µM (inactive); in the assay with SW-620, > 100 µM (inactive). In addition, the GI50 in the assay on UACC-62 was > 100 µM (inactive).

Take `C/C(=N\NC(N)=S)c1cc(C)c(C)cc1C`: the GI50 in the assay with 786-0 was 93.8 µM (inactive); with HCT-116 it was > 100 µM (inactive); in the assay with HOP-62, > 100 µM (inactive); in the assay on K562, 40.3 µM (inactive); in the assay on LOX IMVI, 70.8 µM (inactive); in the assay on M14, 37.2 µM (inactive). Moreover, the GI50 in the assay with MOLT-4 is 20.2 µM (inactive); in the assay on NCI-H460, 43.9 µM (inactive); in the assay with OVCAR-3, 24.4 µM (inactive); in the assay on SK-OV-3, > 100 µM (inactive); with SN12C it was > 100 µM (inactive); in the assay with SW-620, 44 µM (inactive). For the same compound, the GI50 with UACC-62 was 30.9 µM (inactive).

With `O=C1C(=O)N(C(=O)c2ccc(Cl)c(Cl)c2)c2ccc(Cl)cc21`, the GI50 is > 100 µM (inactive) with 786-0; 59.3 µM (inactive) with K562; 44.9 µM (inactive) with LOX IMVI; > 100 µM (inactive) in the assay on M14; 43.9 µM (inactive) in the assay with MOLT-4; 89.7 µM (inactive) in the assay with NCI-H460. Also, the GI50 in the assay with OVCAR-3 is 56.6 µM (inactive); in the assay with SK-OV-3, > 100 µM (inactive); in the assay with SW-620 it was 92 µM (inactive); in the assay on UACC-62, > 100 µM (inactive).

On to `COc1cc(-c2ccccc2)c(OC)cc1CCl`, for which the GI50 in the assay on 786-0, in the assay on HCT-116, in the assay on HOP-62, in the assay on K562, in the assay with M14 and in the assay on MOLT-4 was > 100 µM (inactive) throughout. The GI50 in the assay on NCI-H460, in the assay on NCI-H522, in the assay with OVCAR-3, with SK-OV-3, with SN12C and in the assay on SW-620 was > 100 µM (inactive) in each case. Further, in the assay on UACC-62, the GI50 was > 100 µM (inactive).

On to `COc1ccc(/C=C/C(=O)c2cc(C(=O)O)c(OC)cc2OC)cc1OC`, for which the GI50 with 786-0, in the assay on HCT-116, with HOP-62, in the assay with K562, in the assay on LOX IMVI and with M14 was > 100 µM (inactive) throughout. In addition, the GI50 in the assay with MOLT-4, in the assay with NCI-H460, in the assay on NCI-H522, in the assay with SN12C, in the assay with SW-620 and in the assay with UACC-62 was > 100 µM (inactive) each time.

Regarding `O=C(O)Cc1ccccc1CCc1ccccc1Cl`, the GI50 in the assay on 786-0, in the assay with HCT-116, in the assay with K562, in the assay with LOX IMVI, with M14 and with MOLT-4 was > 100 µM (inactive) in each case. Moreover, the GI50 in the assay with NCI-H460 was > 100 µM (inactive); in the assay with NCI-H522, > 100 µM (inactive); with OVCAR-3 it was 53.2 µM (inactive); in the assay on SK-OV-3, > 100 µM (inactive); in the assay with SN12C it was > 100 µM (inactive); with SW-620 it was > 100 µM (inactive).

With `O=C(Nc1ccc([N+](=O)[O-])cc1C(=O)O)c1ccc([N+](=O)[O-])cc1`, the GI50 was 31.6 µM (inactive) with 786-0; 15.5 µM (inactive) with HCT-116; > 100 µM (inactive) with HOP-62; 15.1 µM (inactive) with K562; 24.2 µM (inactive) in the assay on LOX IMVI; 36.2 µM (inactive) in the assay on M14. Also, the GI50 with MOLT-4 was 14.8 µM (inactive); in the assay with NCI-H460, 21 µM (inactive); with OVCAR-3, 59.6 µM (inactive); with SK-OV-3 it was 79.3 µM (inactive); in the assay on SN12C, 41.4 µM (inactive); in the assay with SW-620, 46.3 µM (inactive). In addition, in the assay with UACC-62, the GI50 is 42.8 µM (inactive).

As to `C=C1C2CC(OC(C)=O)C3(C)C(c4ccoc4)OC(=O)[C@@H](O)[C@]13OC1C[C@H](OC(C)=O)C(C)(C)[C@H](CC(=O)OC)[C@]12C` (stereo not given in full), the GI50 in the assay with 786-0 is > 100 µM (inactive); in the assay on HCT-116, > 100 µM (inactive); in the assay with K562, > 100 µM (inactive); with LOX IMVI, > 100 µM (inactive); with M14, > 100 µM (inactive); in the assay on MOLT-4 it was 70.6 µM (inactive). Further, the GI50 in the assay on NCI-H460, with OVCAR-3, with SK-OV-3, in the assay with SN12C, in the assay with SW-620 and in the assay on UACC-62 was > 100 µM (inactive) each time.

For `N#C/C(=C\c1ccc(O)c(O)c1)C(N)=O`, the GI50 in the assay on 786-0 was 20.6 µM (inactive); in the assay with HCT-116 it was 23 µM (inactive); in the assay with HOP-62, 51.2 µM (inactive); with K562, 34.6 µM (inactive); in the assay on M14, 55.6 µM (inactive); in the assay on MOLT-4, 12.5 µM (inactive). Also, the GI50 in the assay on NCI-H460 is 38 µM (inactive); in the assay on NCI-H522 it was 9.2 µM (inactive); with OVCAR-3, 28.2 µM (inactive); in the assay with SK-OV-3 it was 71.4 µM (inactive); with SN12C, 39.2 µM (inactive); in the assay on SW-620 it was 43.9 µM (inactive). For the same compound, in the assay with UACC-62, the GI50 was 52.7 µM (inactive).

For the compound `C#C[C@]1(O)CC[C@H]2[C@@H]3CCc4cc(O)ccc4[C@H]3CC[C@@]21C` [ETHINYL ESTRADIOL], the GI50 with 786-0 is 34.6 µM (inactive); in the assay with HCT-116, 23 µM (inactive); with LOX IMVI it was 25.2 µM (inactive); in the assay with MOLT-4, 18.6 µM (inactive); in the assay with NCI-H460 it was 21.7 µM (inactive); with NCI-H522, 10.9 µM (inactive). For the same compound, the GI50 was 28 µM (inactive) with OVCAR-3; 24.4 µM (inactive) in the assay on SK-OV-3; 36.8 µM (inactive) in the assay with SN12C; 16.1 µM (inactive) with SW-620; 34.3 µM (inactive) in the assay on UACC-62.
